ChEMBL document CHEMBL1201862, “PubChem BioAssay data set” (2004)
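All cell lines were grown in 96-well plates and treated with compound for 48 hours. Here, GI50 denotes the concentration required for 50% inhibition of growth.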 Calls of active or inactive are those of the source. Cut-off read from the data, not from the text of the source: active = GI50 up to about 1.1 µM and inactive = higher.

Tests used:
Experiment in all cases: NCI anticancer screen, dose series, 48 h
HT-29 = system: HT-29
MCF7 = system: MCF7
MDA-MB-231 = system: MDA-MB-231
OVCAR-4 = system: OVCAR-4
NCI-H460 = system: NCI-H460
SW-620 = system: SW-620
A498 = system: A498
U-251 = system: U-251
MOLT-4 = system: MOLT-4
NCI-H522 = system: NCI-H522
CAKI-1 = system: CAKI-1
UO-31 = system: UO-31
DU-145 = system: DU-145
NCI-H23 = system: NCI-H23
BT-549 = system: BT-549
Hs-578T = system: Hs-578T
T47D = system: T47D
NCI/ADR-RES = system: NCI/ADR-RES

SMILES	GI50 (HT-29)	GI50 (MCF7)	GI50 (MDA-MB-231)	GI50 (OVCAR-4)	GI50 (NCI-H460)	GI50 (SW-620)	GI50 (A498)	GI50 (U-251)	GI50 (MOLT-4)	GI50 (NCI-H522)	GI50 (CAKI-1)	GI50 (UO-31)	GI50 (DU-145)	GI50 (NCI-H23)	GI50 (BT-549)	GI50 (Hs-578T)	GI50 (T47D)	GI50 (NCI/ADR-RES)
CCOC(=O)c1sc2nc(SC)nc3c2c1NC(=O)CN3c1cccc(F)c1	32.6 µM (inactive)	29 µM (inactive)	16.1 µM (inactive)	17.9 µM (inactive)	26.4 µM (inactive)	0.834 µM (active)	18.2 µM (inactive)	14.4 µM (inactive)	30 µM (inactive)	26.5 µM (inactive)	44.3 µM (inactive)	15.5 µM (inactive)	26.7 µM (inactive)	27 µM (inactive)	7.29 µM (inactive)	29.2 µM (inactive)		
NCC(=O)N[C@H]1c2ccsc2/C(=N/O)[C@H]1O	> 100 µM (inactive)	> 100 µM (inactive)	> 100 µM (inactive)	68.9 µM (inactive)	> 100 µM (inactive)	> 100 µM (inactive)	> 100 µM (inactive)	> 100 µM (inactive)	> 100 µM (inactive)		> 100 µM (inactive)	> 100 µM (inactive)	> 100 µM (inactive)	> 100 µM (inactive)	> 100 µM (inactive)		> 100 µM (inactive)	> 100 µM (inactive)
CCOC(=O)c1csc(NC(=O)C(C)N2CCCCC2)n1 (centres undefined)	> 100 µM (inactive)	> 100 µM (inactive)	> 100 µM (inactive)	> 100 µM (inactive)	> 100 µM (inactive)	> 100 µM (inactive)	> 100 µM (inactive)	> 100 µM (inactive)	> 100 µM (inactive)		> 100 µM (inactive)	> 100 µM (inactive)	> 100 µM (inactive)	> 100 µM (inactive)			> 100 µM (inactive)	> 100 µM (inactive)
O=C(C1C(c2ccccc2)N1C(c1ccccc1)c1ccccc1)C1C(c2ccccc2)N1C(c1ccccc1)c1ccccc1 (centres undefined)	13.6 µM (inactive)	5.31 µM (inactive)	19.8 µM (inactive)	38.1 µM (inactive)	15.5 µM (inactive)	5.14 µM (inactive)		25.1 µM (inactive)	6.9 µM (inactive)	5.71 µM (inactive)		21 µM (inactive)				20.2 µM (inactive)	28.4 µM (inactive)	27.4 µM (inactive)
O=c1c2ccccc2ncn1COCc1ccccc1	> 100 µM (inactive)	> 100 µM (inactive)		> 100 µM (inactive)		> 100 µM (inactive)	> 100 µM (inactive)	> 100 µM (inactive)	> 100 µM (inactive)			77.3 µM (inactive)	> 100 µM (inactive)					> 100 µM (inactive)
C=C[C@@](C)(/C=C/c1ccc(O)cc1)CCC=C(C)C [BAKUCHIOL]	16.5 µM (inactive)	19.5 µM (inactive)	18.6 µM (inactive)	14 µM (inactive)	15.6 µM (inactive)	17 µM (inactive)	21.2 µM (inactive)	16.9 µM (inactive)	13.1 µM (inactive)	17.1 µM (inactive)	18.6 µM (inactive)	17.7 µM (inactive)	13.2 µM (inactive)	16.7 µM (inactive)		20.9 µM (inactive)	14 µM (inactive)	16.2 µM (inactive)
Cc1cc(C)c(/C=C2\C(=O)Nc3ccccc32)[nH]1 [SEMAXANIB]	35.6 µM (inactive)	83.9 µM (inactive)	> 62.1 µM (inactive)	52.5 µM (inactive)	> 57.8 µM (inactive)	> 87.7 µM (inactive)	> 100 µM (inactive)	> 100 µM (inactive)	> 78.2 µM (inactive)	> 49.9 µM (inactive)	> 59.2 µM (inactive)	34.5 µM (inactive)	> 83 µM (inactive)	7.96 µM (inactive)	> 100 µM (inactive)		> 100 µM (inactive)	> 100 µM (inactive)
